Measured values taken from patent US12568967B2, “Compositions comprising pyridine carboxylate herbicides with synthetic auxin herbicides or auxin transport inhibitors” (priority 2018, dated 2026).
Where “and” joins values, the source holds several entries; their conditions need not be identical. Identical values can stand only once. Like-named read-outs stand apart in the source and are kept apart here.

Experiments:
[1] = test system: Viola tricolor (wild pansy, VIOTR); test: Greenhouse postemergence trial VIOTR; details: for % visual injury: c1-3 Compound A 7.5/10/15;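 as to all read-outs here: greenhouse plants sprayed at second to third true leaf stage, injury rated visually after 20-22 d against solvent-blank sprayed controls, 0 meaning no injury and 100 complete kill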
[2] = test system: Galium aparine (cleavers, GALAP); test: Greenhouse postemergence trial GALAP; format: in vivo; details: c1-3 Compound A 7.5/10/15
Description: (§1) Seeds of the desired test plant species were planted in a 90:10% v/v (volume/volume) mixture of PRO-MIX® BX (Premier Tech Horticulture, Quakertown, PA, USA) and PROFILE® GREENS GRADE™ (Profile Products LLC, Buffalo Grove, IL, USA) planting mixture, which typically has a pH of 5.2 to 6.2 and an organic matter content of at least 50 percent, in plastic pots with a surface area of 103.2 square centimeters (cm^2). […] The plants were grown for 7-36 days (d) in a greenhouse with an approximate 14-hour (h) photo-period which was maintained at about 23° C. during the day and 22° C. during the night. Nutrients and water were added on a regular basis and supplemental lighting was provided with overhead metal halide 1000-Watt lamps as necessary. The plants were employed for testing when they reached the second or third true leaf stage.
(§2) Emulsifiable concentrates of each of each pyridine carboxylate herbicide (Compound A or Compound B) were prepared at 100 grams acid equivalent per liter (g ae/L). The emulsifiable concentrates also included a safener, cloquintocet-mexyl, at 120 grams active ingredient per liter (g ai/L), unless otherwise noted below. An aliquot of each emulsifiable concentrate was placed in a 25 mL glass vial and diluted with an aqueous mixture of 1.25% (v/v) ACTIROB® B esterified rapeseed oil (Bayer Crop Science, Research Triangle Park, NC, USA) or MSO® Concentrate with LECI-TECH® methylated soybean oil (Loveland Products, Loveland, CO, USA) to obtain concentrated stock solutions at the highest application rate for each herbicide, based upon a 12 milliliter (mL) application volume at a rate of 187 liters per hectare (L/ha). The concentrated stock solutions were further diluted with an aqueous mixture of 1.25% v/v ACTIROB® B or MSO® Concentrate with LECI-TECH® to obtain stock solutions at reduced application rates for each herbicide. Spray solutions of the herbicide combinations (Compound A or Compound B plus synthetic auxin herbicide or auxin transport inhibitor) were prepared by adding weighed amounts or aliquots of the synthetic auxin herbicide or auxin transport inhibitor to the stock solutions of Compound A or Compound B to form 12-mL spray solutions in two-way combinations.
(§3) The spray solutions were applied to the plant material with an overhead Mandel track sprayer equipped with 8002E nozzles calibrated to deliver 187 L/ha over an application area of 0.503 square meters (m^2) at a spray height of 18 inches (43 centimeters (cm)) above the average plant canopy. Control plants were sprayed in the same manner with the solvent blank. All pyridine carboxylate herbicide (component a) application rates are given as “g ae/ha” and all synthetic auxin herbicide or auxin transport inhibitor (component b) application rates are given as “g ai/ha.”
(§4) The treated plants and control plants were placed in a greenhouse as described above and watered by sub-irrigation to prevent wash-off of the test compounds. After 20-22 d, the condition of the test plants as compared with that of the control plants was determined visually and scored on a scale of 0 to 100 percent where 0 corresponds to no injury and 100 corresponds to complete kill.

[3] = test system: Papaver rhoeas (corn poppy, PAPRH); test: Greenhouse postemergence trial PAPRH; format: in vivo; details: c1-3 Compound A 7.5/10/15
Description: as §1, §2, §3, §4

[4] = test system: Stellaria media (chickweed, STEME); test: Greenhouse postemergence trial STEME; format: in vivo; details: for % visual injury: c1-3 Compound A 7.5/10/15
Description: as §1, §2, §3, §4

[5] = test system: Lamium purpureum (purple deadnettle, LAMPU); test: Greenhouse postemergence trial LAMPU; details: c1-3 Compound A 7.5/10/15
[6] = test system: Veronica hederifolia (ivyleaf speedwell, VERHE); test: Greenhouse postemergence trial VERHE; format: in vivo; details: for % visual injury: c1-3 Compound A 7.5/10/15
[7] = test system: Papaver rhoeas (corn poppy), herbicide-resistant (PAPRH-R); test: Greenhouse postemergence trial PAPRH-R; format: in vivo; details: for % visual injury: c1-3 Compound A 7.5/10/15
Description: as §1, §2, §3, §4

[8] = test system: Matricaria inodora (false chamomile, MATIN); test: Greenhouse postemergence trial MATIN; format: in vivo; details: c1-3 Compound A 7.5/10/15
Description: as §1, §2, §3, §4

[9] = test system: Capsella bursa-pastoris (shepherd's purse, CAPBP); test: Greenhouse postemergence trial CAPBP; format: in vivo; details: c1-3 Compound A 7.5/10/15
[10] = test system: Hordeum vulgare (spring barley, HORVS); format: in vivo
[11] = test system: Triticum aestivum (spring wheat, TRZAS); format: in vivo
Description: as §1, §2, §3, §4

[12] = test system: Kochia scoparia (kochia, KCHSC); test: Greenhouse postemergence trial KCHSC; format: in vivo
[13] = test system: Brassica napus (winter rape, BRSNW); test: Greenhouse postemergence trial BRSNW; format: in vivo
Description: as §1, §2, §3, §4

[14] = test system: Glycine max (volunteer soybean, GLXMA); test: Greenhouse postemergence trial GLXMA; format: in vivo
[15] = test system: Cirsium arvense (Canadian thistle, CIRAR); test: Greenhouse postemergence trial CIRAR; format: in vivo
[16] = test system: Helianthus annuus (common sunflower, HELAN); test: Greenhouse postemergence trial HELAN; format: in vivo
Description: as §1, §2, §3, §4

[17] = test system: Ipomoea hederacea (ivyleaf morningglory, IPOHE); test: Greenhouse postemergence trial IPOHE; format: in vivo
Description: as §1, §2, §3, §4

[18] = test system: Matricaria chamomilla (wild chamomile, MATCH); test: Greenhouse postemergence trial MATCH; format: in vivo;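 also: greenhouse plants sprayed at second to third true leaf stage, injury rated by eye 20-22 d later versus solvent-blank controls on 0–100 scale, 0 no injury, 100 complete kill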
[19] = test system: Rumex obtusifolius (broad-leaf dock, RUMOB); test: Greenhouse postemergence trial RUMOB; format: in vivo
Description: as §1, §2, §3, §4

[20] = test system: Abutilon theophrasti (velvetleaf, ABUTH); test: Greenhouse postemergence trial ABUTH; format: in vivo
Description: as §1, §2, §3, §4

[21] = test system: Chenopodium album L. (common lambsquarters, CHEAL); test: Greenhouse postemergence trial CHEAL; format: in vivo;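 also: greenhouse plants sprayed at second to third true leaf stage, injury rated by eye after 20-22 d versus solvent-blank sprayed controls, 0 = no injury, 100 = complete kill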
Description: (§5) The plants were grown for 7-36 days (d) in a greenhouse with an approximate 14-hour (h) photo-period which was maintained at about 23° C. during the day and 22° C. during the night. Nutrients and water were added on a regular basis and supplemental lighting was provided with overhead metal halide 1000-Watt lamps as necessary. The plants were employed for testing when they reached the second or third true leaf stage.
(§6) The emulsifiable concentrates also included a safener, cloquintocet-mexyl, at 120 grams active ingredient per liter (g ai/L), unless otherwise noted below.
(§7) Control plants were sprayed in the same manner with the solvent blank. All pyridine carboxylate herbicide (component a) application rates are given as “g ae/ha” and all synthetic auxin herbicide or auxin transport inhibitor (component b) application rates are given as “g ai/ha.”
as §4

[22] = test system: Polygonum convolvulus (wild buckwheat, POLCO); test: Greenhouse postemergence trial POLCO; format: in vivo
[23] = test system: Matricaria discoidea (pineapple weed, MATMT); test: Greenhouse postemergence trial MATMT; format: in vivo
[24] = test system: Veronica persica (bird's-eye speedwell, VERPE); test: Greenhouse postemergence trial VERPE; format: in vivo
[25] = test system: Amaranthus retroflexus (pigweed, AMARE); test: Greenhouse postemergence trial AMARE; format: in vivo;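 also: Greenhouse-grown plants sprayed at second to third true leaf stage, injury rated by eye after 20-22 d versus solvent-blank sprayed controls, 0 = no injury, 100 = complete kill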
Description: as §5, §6, §7, §4

[26] = test system: Viola arvensis (field violet, VIOAR); test: Greenhouse postemergence trial VIOAR; format: in vivo; details: c1-3 Compound A 7.5/10/15; c4-5 Fluroxypyr-MHE 100/140; c6-8, c9-11 A 7.5/10/15 + Fluroxypyr-MHE 100, 140 g/ha
[27] = test system: Anthemis arvensis (field chamomile, ANTAR); test: Greenhouse postemergence trial ANTAR; format: in vivo; details: c1-3 Compound A 7.5/10/15; c4-5 Fluroxypyr-MHE 100/140; c6-8, c9-11 A 7.5/10/15 + Fluroxypyr-MHE 100, 140 g/ha
[28] = test system: Triticum aestivum (winter wheat, TRZAW); test: Greenhouse postemergence crop phytotoxicity TRZAW; format: in vivo; details: c1-3 Compound A 7.5/10/15; c4-5 Fluroxypyr-MHE 100/140; c6-8, c9-11 A 7.5/10/15 + Fluroxypyr-MHE 100, 140 g/ha
[29] = test system: Cyanus segetum (cornflower, CENCY); test: Greenhouse postemergence trial CENCY; format: in vivo; details: c1-3 Compound A 7.5/10/15; c4-5 Fluroxypyr-MHE 100/140; c6-8, c9-11 A 7.5/10/15 + Fluroxypyr-MHE 100, 140 g/ha
[30] = test system: Hordeum vulgare (winter barley, HORVW); test: Greenhouse postemergence crop phytotoxicity HORVW; format: in vivo; details: c1-3 Compound A 7.5/10/15; c4-5 Fluroxypyr-MHE 100/140; c6-8, c9-11 A 7.5/10/15 + Fluroxypyr-MHE 100, 140 g/ha
[31] = test system: Sinapis arvensis (wild mustard, SINAR); test: Greenhouse postemergence trial SINAR; format: in vivo; details: SINAR; alone 280 g/ha
[32] = c4-6 Clopyralid 30/60/120, c7-9, c10-12, c13-15 A 7.5/10/15 + Clopyralid 30, 60, 120 g/ha
[33] = c4-5 Fluroxypyr-MHE 100/140, c6-8, c9-11 A 7.5/10/15 + Fluroxypyr-MHE 100, 140 g/ha
[34] = c1-3 Compound A 7.5/10/15, c4-5 Fluroxypyr-MHE 100/140, c6-8, c9-11 A 7.5/10/15 + Fluroxypyr-MHE 100, 140 g/ha

## O=C(O)c1nc(Cl)ccc1Cl [Clopyralid, clopyralid, reference compound]
[1]; [32]
  % visual injury: 0%
[2]; [32]
  % visual injury: 0%
[3]; [32]
  % visual injury: 0%
[4]; [32]
  % visual injury: 0%
[5]; [32]
  % visual injury: 0%
[6]; [32]
  % visual injury: 0%
[7]; [32]
  % visual injury: 0%
[8]; [32]
  % visual injury: 35%
[9]; [32]
  % visual injury: 0%

## C#CCOC(=O)c1nc(-c2ccc3cc[nH]c3c2F)c(F)c(N)c1Cl [Compound B, propargyl 4-amino-3-chloro-5-fluoro-6-(7-fluoro-1H-indol-6-yl)pyridine-2-carboxylate]
[1]; Compound B 10 g/ha (Table 40)
  VIOTR % visual injury Obs: 8%
[1]; Compound B 10 g/ha (Table 41)
  VIOTR % visual injury Obs: 8%
[10]; Compound B 10 g/ha (Table 36)
  HORVS % visual injury Obs: 0%
[10]; Compound B 10 g/ha (Table 37)
  HORVS % visual injury Obs: 0%
[10]; HORVS, applied alone, 10 g/ha
  % visual injury, Obs: 0%
[11]; Compound B 10 g/ha (Table 36)
  TRZAS % visual injury Obs: 0%
[11]; Compound B 10 g/ha (Table 37)
  TRZAS % visual injury Obs: 0%
[11]; TRZAS, applied alone, 10 g/ha
  % visual injury, Obs: 0%
[12]; Compound B 10 g/ha (Table 40)
  KCHSC % visual injury Obs: 73%
[12]; Compound B 10 g/ha (Table 41)
  KCHSC % visual injury Obs: 73%
[13]; Brassica napus, post-emergence, BRSNW, applied alone, 10 g/ha, read-out: % visual injury, Obs
  plant injury at 10 g/ha: 73%
[13]; Compound B 10 g/ha (Table 36)
  BRSNW % visual injury Obs: 73%
[13]; Compound B 10 g/ha (Table 37)
  BRSNW % visual injury Obs: 73%
[13]; Compound B 10 g/ha (Table 39)
  BRSNW % visual injury Obs: 93%
[4]; Compound B 10 g/ha (Table 40)
  STEME % visual injury Obs: 90%
[4]; Compound B 10 g/ha (Table 41)
  STEME % visual injury Obs: 90%
[14]; Compound B 10 g/ha (Table 40)
  GLXMA % visual injury Obs: 73%
[14]; Compound B 10 g/ha (Table 41)
  GLXMA % visual injury Obs: 73%
[15]; Compound B 10 g/ha (Table 36)
  CIRAR % visual injury Obs: 25%
[15]; Compound B 10 g/ha (Table 37)
  CIRAR % visual injury Obs: 25%
[15]; Compound B 10 g/ha (Table 40)
  CIRAR % visual injury Obs: 55%
[15]; Compound B 10 g/ha (Table 41)
  CIRAR % visual injury Obs: 55%
[16]; Compound B 10 g/ha (Table 40)
  HELAN % visual injury Obs: 100%
[16]; Compound B 10 g/ha (Table 41)
  HELAN % visual injury Obs: 100%
[6]; Compound B 10 g/ha (Table 39)
  VERHE % visual injury Obs: 70%
[17]; Compound B 10 g/ha (Table 40)
  IPOHE % visual injury Obs: 0%
[17]; Compound B 10 g/ha (Table 41)
  IPOHE % visual injury Obs: 0%
[18]; Compound B 10 g/ha (Table 39)
  MATCH % visual injury Obs: 20%
[18]; MATCH, applied alone, 10 g/ha
  % visual injury, Obs: 18%
[19]; Compound B 10 g/ha (Table 40)
  RUMOB % visual injury Obs: 15%
[19]; Compound B 10 g/ha (Table 41)
  RUMOB % visual injury Obs: 15%
[20]; Compound B 10 g/ha (Table 40)
  ABUTH % visual injury Obs: 68%
[20]; Compound B 10 g/ha (Table 41)
  ABUTH % visual injury Obs: 68%
[21]; Compound B 10 g/ha (Table 40)
  CHEAL % visual injury Obs: 93%
[21]; Compound B 10 g/ha (Table 41)
  CHEAL % visual injury Obs: 93%
[7]; Compound B 10 g/ha (Table 38)
  PAPRH-R % visual injury Obs: 95%
[7]; Compound B 10 g/ha (Table 39)
  PAPRH-R % visual injury Obs: 95%
[22]; Compound B 10 g/ha (Table 36)
  POLCO % visual injury Obs: 97%
[22]; Compound B 10 g/ha (Table 40)
  POLCO % visual injury Obs: 90%
[22]; Compound B 10 g/ha (Table 41)
  POLCO % visual injury Obs: 90%
[23]; Compound B 10 g/ha (Table 38)
  MATMT % visual injury Obs: 20%
[23]; Compound B 10 g/ha (Table 39)
  MATMT % visual injury Obs: 20%
[24]; Compound B 10 g/ha (Table 39)
  VERVE % visual injury Obs: 80%
[25]; AMARE, applied alone, 10 g/ha
  % visual injury, Obs: 84%
[25]; Compound B 10 g/ha (Table 36)
  AMARE % visual injury Obs: 84%
[25]; Compound B 10 g/ha (Table 40)
  AMARE % visual injury Obs: 73%
[25]; Compound B 10 g/ha (Table 41)
  AMARE % visual injury Obs: 73%

## CCCCCCC(C)OC(=O)COc1nc(F)c(Cl)c(N)c1Cl (stereo not drawn) [Fluroxypyr-MHE, fluroxypyr-meptyl, reference compound]
[26]
  % visual injury: 20%
[1]; [33]
  % visual injury: 50%
[10]; [34]
  % visual injury (crop phytotoxicity): 0%
[2]; [33]
  % visual injury: 85% and 95%
[11]; [34]
  % visual injury (crop phytotoxicity): 0%
[3]; [33]
  % visual injury: 10%
[4]; [33]
  % visual injury: 70% and 75%
[5]; [33]
  % visual injury: 60% and 65%
[6]; [33]
  % visual injury: 30% and 60%
[7]; [33]
  % visual injury: 10%
[8]; [33]
  % visual injury: 10% and 15%
[27]
  % visual injury: 30% and 35%
[23]; [34]
  % visual injury: 0%
[24]; [34]
  % visual injury: 70% and 85%
[9]; [33]
  % visual injury: 0%
[28]
  % visual injury (crop phytotoxicity): 0%
[29]
  % visual injury: 60% and 95%
[30]
  % visual injury (crop phytotoxicity): 0%

## CCCCC(CC)COC(=O)COc1ccc(Cl)cc1C (stereo not drawn) [MCPA EHE]
[1]; MCPA EHE 280 g/ha (Table 41)
  VIOTR % visual injury Obs: 0%
[10]; HORVS, alone 280 g/ha
  % visual injury (Obs): 0%
[11]; TRZAS, alone 280 g/ha
  % visual injury (Obs): 0%
[12]; KCHSC, alone 280 g/ha
  % visual injury (Obs): 10%
[12]; MCPA EHE 280 g/ha (Table 41)
  KCHSC % visual injury Obs: 0%
[13]; BRSNW, alone 280 g/ha
  % visual injury (Obs): 60%
[4]; MCPA EHE 280 g/ha (Table 41)
  STEME % visual injury Obs: 0%
[14]; MCPA EHE 280 g/ha (Table 41)
  GLXMA % visual injury Obs: 30%
[15]; CIRAR, alone 280 g/ha
  % visual injury (Obs): 20%
[15]; MCPA EHE 280 g/ha (Table 41)
  CIRAR % visual injury Obs: 23%
[16]; MCPA EHE 280 g/ha (Table 41)
  HELAN % visual injury Obs: 90%
[17]; MCPA EHE 280 g/ha (Table 41)
  IPOHE % visual injury Obs: 78%
[18]; MATCH, alone 280 g/ha
  % visual injury (Obs): 20%
[19]; MCPA EHE 280 g/ha (Table 41)
  RUMOB % visual injury Obs: 25%
[20]; MCPA EHE 280 g/ha (Table 41)
  ABUTH % visual injury Obs: 5%
[21]; CHEAL, alone 280 g/ha
  % visual injury (Obs): 70%
[21]; MCPA EHE 280 g/ha (Table 41)
  CHEAL % visual injury Obs: 73%
[22]; MCPA EHE 280 g/ha (Table 41)
  POLCO % visual injury Obs: 0%
[22]; POLCO, alone 280 g/ha
  % visual injury (Obs): 10%
[25]; AMARE, alone 280 g/ha
  % visual injury (Obs): 50%
[25]; MCPA EHE 280 g/ha (Table 41)
  AMARE % visual injury Obs: 30%
[31]
  % visual injury (Obs): 80%
